In patent US10106556B2, “Heterocyclic compound” (TAKEDA PHARMACEUTICAL COMPANY LIMITED, priority 2015, dated 2018):

Each compound was assayed against T1, His-hMAGL (recombinant polyhistidine tagged human MAGL protein) (Homo sapiens, UniProt Q99685) (assay: Measurement of MAGL inhibitory activity (arachidonic acid production from 2-arachidonylglycerol, RapidFire-mass spectrometry)). Settings: MAGL inhibitory rate at 10 μM test compound; 60 min preincubation with His-hMAGL, 2-arachidonylglycerol substrate, 10 min reaction at room temperature.
T1 construct: made in house; host or cells: E. coli BL21(DE3)
T1 sequence (Q99685 1-303): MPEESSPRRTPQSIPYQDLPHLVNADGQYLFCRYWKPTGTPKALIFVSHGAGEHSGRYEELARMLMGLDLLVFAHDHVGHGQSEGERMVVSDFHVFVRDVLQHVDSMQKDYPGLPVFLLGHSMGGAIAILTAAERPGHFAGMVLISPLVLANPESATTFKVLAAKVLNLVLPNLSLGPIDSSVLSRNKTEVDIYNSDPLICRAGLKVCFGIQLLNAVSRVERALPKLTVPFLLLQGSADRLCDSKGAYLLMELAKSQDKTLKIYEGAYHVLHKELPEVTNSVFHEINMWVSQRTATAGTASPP
Type: biochemical
Outline: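 Inhibition (%) was derived from arachidonic acid levels relative to enzyme-free and compound-free groups. Product was measured by online C4 solid-phase extraction and triple-quadrupole MS in negative SRM mode, corrected by arachidonic acid-d8 (3 μM in the acetonitrile added). Substrate was 2-arachidonylglycerol; enzyme was His-tagged recombinant human MAGL.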

| Compound | inhibition at 10 µM [%] |
| --- | --- |
| O=C1COc2ccc(C(=O)N3CCC(COc4cccc(C(F)(F)F)c4)CC3)cc2N1 [Example 57, 6-((4-((3-(trifluoromethyl)phenoxy)methyl)piperidin-1-yl)carbonyl)-2H-1,4-benzoxazin-3(4H)-one] | 99 |
| O=C1COc2cc(F)c(C(=O)N3CC(COc4ccc(Br)cc4F)C3)cc2N1 [Example 194, 6-((3-((4-bromo-2-fluorophenoxy)methyl)azetidin-1-yl)carbonyl)-7-fluoro-2H-1,4-benzoxazin-3(4H)-one] | 103 |
| O=C1COc2cc(F)c(C(=O)N3CC(COc4ccc(-c5cncc(Cl)c5)cc4F)C3)cc2N1 [Example 235, 6-((3-((4-(5-chloropyridin-3-yl)-2-fluorophenoxy)methyl)azetidin-1-yl)carbonyl)-7-fluoro-2H-1,4-benzoxazin-3(4H)-one] | 100 |
| O=C1COc2cc(F)c(C(=O)N3CC(COc4cc(F)ccc4Cl)C3)cc2N1 [Example 132, 6-((3-((2-chloro-5-fluorophenoxy)methyl)azetidin-1-yl)carbonyl)-7-fluoro-2H-1,4-benzoxazin-3(4H)-one] | 99 |
| N#Cc1ccc(OCC2CCN(C(=O)c3ccc4c(c3)NC(=O)CO4)CC2)cc1 [Example 49, 4-((1-((3-oxo-3,4-dihydro-2H-1,4-benzoxazin-6-yl)carbonyl)piperidin-4-yl)methoxy)benzonitrile] | 92 |
| O=C1COc2cc(F)c(C(=O)N3CC(COc4ccc(Cl)cc4-c4ccnc(F)c4)C3)cc2N1 [Example 207, 6-((3-((4-chloro-2-(2-fluoropyridin-4-yl)phenoxy)methyl)azetidin-1-yl)carbonyl)-7-fluoro-2H-1,4-benzoxazin-3(4H)-one] | 100 |
| Cc1ccc(OCC2CCN(C(=O)c3ccc4c(c3)NC(=O)CO4)CC2)c(Cl)n1 [Example 40, 6-((4-(((2-chloro-6-methylpyridin-3-yl)oxy)methyl)piperidin-1-yl)carbonyl)-2H-1,4-benzoxazin-3(4H)-one] | 95 |
| O=C1COc2cc(F)c(C(=O)N3CC(COCc4ccccc4Cl)C3)cc2N1 [Example 148, 6-((3-(((2-chlorobenzyl)oxy)methyl)azetidin-1-yl)carbonyl)-7-fluoro-2H-1,4-benzoxazin-3(4H)-one] | 102 |
| Cc1cccc(OCC2CN(C(=O)c3cc4c(cc3F)OCC(=O)N4)C2)c1 [Example 162, 7-fluoro-6-((3-((3-methylphenoxy)methyl)azetidin-1-yl)carbonyl)-2H-1,4-benzoxazin-3(4H)-one] | 102 |
| CN1CC=C(c2ccc(OCC3CN(C(=O)c4cc5c(cc4F)OCC(=O)N5)C3)c(F)c2)CC1 [Example 245, 7-fluoro-6-((3-((2-fluoro-4-(1-methyl-1,2,3,6-tetrahydropyridin-4-yl)phenoxy)methyl)azetidin-1-yl)carbonyl)-2H-1,4-benzoxazin-3(4H)-one] | 96 |
| CC(C)(C)c1ccccc1OCC1CN(C(=O)c2ccc3c(c2)NC(=O)CO3)C1 [Example 146, 6-((3-((2-tert-butylphenoxy)methyl)azetidin-1-yl)carbonyl)-2H-1,4-benzoxazin-3(4H)-one] | 97 |
| O=C1COc2cc(F)c(C(=O)N3CC(COc4ccc(Cl)cc4-c4ccncc4F)C3)cc2N1 [Example 209, 6-((3-((4-chloro-2-(3-fluoropyridin-4-yl)phenoxy)methyl)azetidin-1-yl)carbonyl)-7-fluoro-2H-1,4-benzoxazin-3(4H)-one] | 101 |
| N#Cc1ccc(OCC2CN(C(=O)c3cc4c(cc3F)OCC(=O)N4)C2)c(Cl)c1 [Example 92, 3-chloro-4-((1-((7-fluoro-3-oxo-3,4-dihydro-2H-1,4-benzoxazin-6-yl)carbonyl)azetidin-3-yl)methoxy)benzonitrile] | 99 |
| O=C1COc2cc(F)c(C(=O)N3CC(COc4cccc(-c5ccccc5)c4)C3)cc2N1 [Example 110, 6-((3-((biphenyl-3-yloxy)methyl)azetidin-1-yl)carbonyl)-7-fluoro-2H-1,4-benzoxazin-3(4H)-one] | 97 |
| O=C1COc2cc(F)c(C(=O)N3CCC(COc4ccc(F)cc4Cl)CC3)cc2N1 [Example 66, 6-((4-((2-chloro-4-fluorophenoxy)methyl)piperidin-1-yl)carbonyl)-7-fluoro-2H-1,4-benzoxazin-3(4H)-one] | 104 |
| O=C1COc2cc(F)c(C(=O)N3CC(COc4ccc(C(F)(F)F)cc4F)C3)cc2N1 [Example 188, 7-fluoro-6-((3-((2-fluoro-4-(trifluoromethyl)phenoxy)methyl)azetidin-1-yl)carbonyl)-2H-1,4-benzoxazin-3(4H)-one] | 97 |
| O=C1COc2cc(F)c(C(=O)N3CC(COc4cccc5[nH]ncc45)C3)cc2N1 [Example 107, 7-fluoro-6-((3-((1H-indazol-4-yloxy)methyl)azetidin-1-yl)carbonyl)-2H-1,4-benzoxazin-3(4H)-one] | 101 |
| O=C1COc2cc(F)c(C(=O)N3CCC(COc4ccc(Cl)nc4Cl)CC3)cc2N1 [Example 71, 6-((4-(((2,6-dichloropyridin-3-yl)oxy)methyl)piperidin-1-yl)carbonyl)-7-fluoro-2H-1,4-benzoxazin-3(4H)-one] | 100 |
| O=C1COc2cc(F)c(C(=O)N3CC(COc4c(Cl)cccc4Cl)C3)cc2N1 [Example 122, 6-((3-((2,6-dichlorophenoxy)methyl)azetidin-1-yl)carbonyl)-7-fluoro-2H-1,4-benzoxazin-3(4H)-one] | 102 |
| O=C1COc2cc(F)c(C(=O)N3CC(COc4ccc5[nH]ncc5c4)C3)cc2N1 [Example 156, 7-fluoro-6-((3-((1H-indazol-5-yloxy)methyl)azetidin-1-yl)carbonyl)-2H-1,4-benzoxazin-3(4H)-one] | 100 |
| O=C1COc2cc(F)c(C(=O)N3CCC(COC4CCC(F)(F)CC4)CC3)cc2N1 [Example 95, 6-((4-(((4,4-difluorocyclohexyl)oxy)methyl)piperidin-1-yl)carbonyl)-7-fluoro-2H-1,4-benzoxazin-3(4H)-one] | 97 |
| N#Cc1cc(Cl)ccc1OCC1CN(C(=O)c2cc3c(cc2F)OCC(=O)N3)C1 [Example 119, 5-chloro-2-((1-((7-fluoro-3-oxo-3,4-dihydro-2H-1,4-benzoxazin-6-yl)carbonyl)azetidin-3-yl)methoxy)benzonitrile] | 102 |

Next, values leading:

| inhibition at 10 µM [%] | Compound |
| --- | --- |
| 101 | Cc1nc(C)c(-c2cc(Cl)ccc2OCC2CN(C(=O)c3cc4c(cc3F)OCC(=O)N4)C2)s1 [Example 268, 6-((3-((4-chloro-2-(2,4-dimethyl-1,3-thiazol-5-yl)phenoxy)methyl)azetidin-1-yl)carbonyl)-7-fluoro-2H-1,4-benzoxazin-3(4H)-one] |
| 101 | O=C1COc2cc(F)c(C(=O)N3CC(OCc4ccc(C(F)F)cc4F)C3)cc2N1 [Example 352, 6-((3-((4-(difluoromethyl)-2-fluorobenzyl)oxy)azetidin-1-yl)carbonyl)-7-fluoro-2H-1,4-benzoxazin-3(4H)-one] |
| 88 | O=C1COc2cc(F)c(C(=O)N3CC(COc4ccc(-c5cccc(F)n5)cc4F)C3)cc2N1 [Example 289, 7-fluoro-6-((3-((2-fluoro-4-(6-fluoropyridin-2-yl)phenoxy)methyl)azetidin-1-yl)carbonyl)-2H-1,4-benzoxazin-3(4H)-one] |
| 101 | O=C1COc2cc(F)c(C(=O)N3CC(COc4ccc(C(F)F)cc4F)C3)cc2N1 [Example 288, 6-((3-((4-(difluoromethyl)-2-fluorophenoxy)methyl)azetidin-1-yl)carbonyl)-7-fluoro-2H-1,4-benzoxazin-3(4H)-one] |
| 101 | O=C1COc2cc(F)c(C(=O)N3CC(OCc4ccccc4OC(F)F)C3)cc2N1 [Example 341] |
| 101 | Cc1ccc(COC2CN(C(=O)c3cc4c(cc3F)OCC(=O)N4)C2)c(F)c1 [Example 350, 7-fluoro-6-((3-((2-fluoro-4-methylbenzyl)oxy)azetidin-1-yl)carbonyl)-2H-1,4-benzoxazin-3(4H)-one] |
| 101 | CC1(COc2ccc(F)cc2Cl)CN(C(=O)c2cc3c(cc2F)OCC(=O)N3)C1 [Example 283, 6-((3-((2-chloro-4-fluorophenoxy)methyl)-3-methylazetidin-1-yl)carbonyl)-7-fluoro-2H-1,4-benzoxazin-3(4H)-one] |
| 96 | O=C1COc2cc(F)c(C(=O)N3CCC(COc4ccc5c(c4)CCCC5)CC3)cc2N1 [Example 284, 7-fluoro-6-((4-((5,6,7,8-tetrahydronaphthalen-2-yloxy)methyl)piperidin-1-yl)carbonyl)-2H-1,4-benzoxazin-3(4H)-one] |
| 101 | Cc1c(-c2ccc(OCC3CN(C(=O)c4cc5c(cc4F)OCC(=O)N5)C3)c(F)c2)cnn1C [Example 250, 6-((3-((4-(1,5-dimethyl-1H-pyrazol-4-yl)-2-fluorophenoxy)methyl)azetidin-1-yl)carbonyl)-7-fluoro-2H-1,4-benzoxazin-3(4H)-one] |
| 99 | O=C1COc2cc(F)c(C(=O)N3CC(OCc4ccc(C(F)(F)F)c(F)c4)C3)cc2N1 [Example 351, 7-fluoro-6-((3-((3-fluoro-4-(trifluoromethyl)benzyl)oxy)azetidin-1-yl)carbonyl)-2H-1,4-benzoxazin-3(4H)-one] |
| 100 | CC(Oc1cc(F)cc(F)c1)C1CN(C(=O)c2cc3c(cc2F)OCC(=O)N3)C1 (stereo not drawn) [Example 305, 6-((3-(1-(3,5-difluorophenoxy)ethyl)azetidin-1-yl)carbonyl)-7-fluoro-2H-1,4-benzoxazin-3(4H)-one] |
